ChEMBL document CHEMBL5465560, “Selectivity Literature for EUbOPEN Chemogenomic Library” (2024)

How the values were obtained:
[1] = target: Mitogen-activated protein kinase kinase kinase kinase 5 (Homo sapiens) (UniProt Q9Y4K4); test: Selectivity interaction (Kinase panel (KiNativ target engagement assay in Jurkat cells)) EUB0001635a MAP4K5; type: cell-based; settings: Selectivity number of off-targets 0.0, Selectivity number of targets 233.0, Source Knowledge https://www.sciencedirect.com/science/article/pii/S2451945619300674?via%3Dihub, at 1 µM
[2] = target: Mitogen-activated protein kinase 7 (Homo sapiens) (UniProt Q13164); test: Selectivity interaction (KinomeScan (DiscoverX)) EUB0000595a MAPK7; settings: at 10 µM
[3] = target: T1, Inhibitor of nuclear factor kappa-B kinase subunit beta (Homo sapiens) (UniProt O14920); test: Selectivity interaction (KinomeScan (DiscoverX)) EUB0000695a IKBKB; settings: at 100 nM
T1 sequence (whole entry): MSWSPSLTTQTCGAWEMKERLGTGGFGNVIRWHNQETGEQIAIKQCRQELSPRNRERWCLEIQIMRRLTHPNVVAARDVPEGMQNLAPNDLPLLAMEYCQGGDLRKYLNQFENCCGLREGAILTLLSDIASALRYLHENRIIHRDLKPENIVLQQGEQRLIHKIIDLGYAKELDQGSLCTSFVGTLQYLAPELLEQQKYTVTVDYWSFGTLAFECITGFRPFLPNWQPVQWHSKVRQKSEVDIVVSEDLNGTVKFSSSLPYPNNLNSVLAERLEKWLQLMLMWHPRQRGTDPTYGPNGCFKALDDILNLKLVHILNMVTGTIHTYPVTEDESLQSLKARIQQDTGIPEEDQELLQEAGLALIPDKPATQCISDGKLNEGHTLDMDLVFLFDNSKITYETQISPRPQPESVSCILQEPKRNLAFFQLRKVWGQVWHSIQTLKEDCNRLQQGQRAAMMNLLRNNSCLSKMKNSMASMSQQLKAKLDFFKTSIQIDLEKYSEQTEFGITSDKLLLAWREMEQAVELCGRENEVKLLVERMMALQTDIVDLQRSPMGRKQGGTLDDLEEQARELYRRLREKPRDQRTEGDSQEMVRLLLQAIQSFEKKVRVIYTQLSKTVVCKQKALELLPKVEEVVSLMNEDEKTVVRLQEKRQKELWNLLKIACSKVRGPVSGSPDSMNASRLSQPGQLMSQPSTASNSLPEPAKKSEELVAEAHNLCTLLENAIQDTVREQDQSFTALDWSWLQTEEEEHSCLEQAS

[4] = target: Serine/threonine-protein kinase PAK 6 (Homo sapiens) (UniProt Q9NQU5); test: Selectivity interaction (KinomeScan (DiscoverX)) EUB0000695a PAK6; settings: at 100 nM
[5] = target: Serine/threonine-protein kinase WNK3 (Homo sapiens) (UniProt Q9BYP7); test: Selectivity interaction (KinomeScan (DiscoverX)) EUB0001079a WNK3; settings: at 1 µM
[6] = target: High affinity nerve growth factor receptor (Homo sapiens, UniProt P04629); test: Selectivity interaction (KinomeScan (DiscoverX)) EUB0000618a NTRK1; settings: at 10 µM
[7] = target: Phosphatidylinositol 4-kinase beta (Homo sapiens, UniProt Q9UBF8); test: Selectivity interaction (KinomeScan (DiscoverX)) EUB0000618a PI4KB; settings: at 10 µM
[8] = target: T2, Eukaryotic translation initiation factor 2-alpha kinase 3 (Homo sapiens) (UniProt Q9NZJ5); test: Selectivity interaction (ActivX KiNativ screen (kinase selectivity in THP-1 cell lysates)) EUB0000639a EIF2AK3; type: subcellular; settings: lysate
T2 sequence (whole entry): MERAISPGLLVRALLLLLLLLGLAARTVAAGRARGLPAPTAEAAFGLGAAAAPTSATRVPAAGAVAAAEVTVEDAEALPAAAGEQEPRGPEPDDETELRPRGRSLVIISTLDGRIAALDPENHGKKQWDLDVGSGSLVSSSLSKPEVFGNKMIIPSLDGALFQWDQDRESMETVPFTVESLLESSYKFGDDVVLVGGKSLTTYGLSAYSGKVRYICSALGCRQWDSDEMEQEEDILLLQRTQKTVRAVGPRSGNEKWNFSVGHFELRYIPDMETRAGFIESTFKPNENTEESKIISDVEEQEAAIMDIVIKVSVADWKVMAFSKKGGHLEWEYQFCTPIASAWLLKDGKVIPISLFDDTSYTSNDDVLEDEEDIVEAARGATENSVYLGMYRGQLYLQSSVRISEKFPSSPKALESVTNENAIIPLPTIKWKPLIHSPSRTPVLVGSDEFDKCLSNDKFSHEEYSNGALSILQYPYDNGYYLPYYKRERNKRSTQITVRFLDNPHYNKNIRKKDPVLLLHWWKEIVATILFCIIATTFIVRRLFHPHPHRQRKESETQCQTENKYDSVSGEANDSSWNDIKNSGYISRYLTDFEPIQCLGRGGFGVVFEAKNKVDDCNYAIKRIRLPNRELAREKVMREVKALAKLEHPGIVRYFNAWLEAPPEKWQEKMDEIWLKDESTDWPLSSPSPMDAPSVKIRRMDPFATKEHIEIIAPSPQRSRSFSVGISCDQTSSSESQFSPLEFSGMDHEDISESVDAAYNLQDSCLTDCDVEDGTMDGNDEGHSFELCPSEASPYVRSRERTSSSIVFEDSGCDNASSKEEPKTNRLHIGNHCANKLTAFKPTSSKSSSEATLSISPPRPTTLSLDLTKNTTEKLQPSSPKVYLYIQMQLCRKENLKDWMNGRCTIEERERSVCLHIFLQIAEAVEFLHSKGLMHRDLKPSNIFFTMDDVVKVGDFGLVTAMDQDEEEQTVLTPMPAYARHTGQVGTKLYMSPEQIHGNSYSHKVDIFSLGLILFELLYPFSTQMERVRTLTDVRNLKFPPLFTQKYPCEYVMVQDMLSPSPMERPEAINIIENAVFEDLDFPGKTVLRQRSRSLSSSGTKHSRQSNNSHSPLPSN

[9] = target: T1, Inhibitor of nuclear factor kappa-B kinase subunit beta (Homo sapiens); test: Selectivity interaction (ActivX KiNativ screen (kinase selectivity in THP-1 cell lysates)) EUB0000639a IKBKB; type: subcellular; settings: lysate, at 1 µM
[10] = target: MAP kinase-interacting serine/threonine-protein kinase 1 (Homo sapiens) (UniProt Q9BUB5); test: Selectivity interaction (Kinase panel (Invitrogen)) EUB0000639a MKNK1; settings: at 200 nM
Focal adhesion kinase 1 = Focal adhesion kinase 1 (Homo sapiens, UniProt Q05397); test: Selectivity interaction (KinomeScan (DiscoverX)) EUB0000092b PTK2; settings: at 10 µM
[11] = target: MAP kinase-interacting serine/threonine-protein kinase 1 (Homo sapiens) (UniProt Q9BUB5); test: Selectivity interaction (Ambit KINOMEscan and KiNATiv profiling in Jurkat cells) EUB0000090b MKNK1; type: cell-based; settings: at 1 µM

MAP kinase-interacting serine/threonine-protein kinase 1 (Homo sapiens), sequence (Q9BUB5 whole entry, looked up): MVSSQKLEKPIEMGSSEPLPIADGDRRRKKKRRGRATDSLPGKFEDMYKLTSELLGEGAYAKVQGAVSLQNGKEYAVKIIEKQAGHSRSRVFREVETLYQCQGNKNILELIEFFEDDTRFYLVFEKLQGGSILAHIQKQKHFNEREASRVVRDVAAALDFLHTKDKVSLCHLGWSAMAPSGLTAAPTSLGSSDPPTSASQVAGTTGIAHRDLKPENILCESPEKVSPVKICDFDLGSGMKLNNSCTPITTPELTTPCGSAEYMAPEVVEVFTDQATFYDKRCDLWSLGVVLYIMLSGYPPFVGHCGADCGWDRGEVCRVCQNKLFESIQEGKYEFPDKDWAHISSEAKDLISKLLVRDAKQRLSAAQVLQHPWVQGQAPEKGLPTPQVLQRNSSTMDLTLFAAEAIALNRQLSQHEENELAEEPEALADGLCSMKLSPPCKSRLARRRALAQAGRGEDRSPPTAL
Mitogen-activated protein kinase kinase kinase kinase 5 (Homo sapiens), sequence (Q9Y4K4 whole entry, looked up): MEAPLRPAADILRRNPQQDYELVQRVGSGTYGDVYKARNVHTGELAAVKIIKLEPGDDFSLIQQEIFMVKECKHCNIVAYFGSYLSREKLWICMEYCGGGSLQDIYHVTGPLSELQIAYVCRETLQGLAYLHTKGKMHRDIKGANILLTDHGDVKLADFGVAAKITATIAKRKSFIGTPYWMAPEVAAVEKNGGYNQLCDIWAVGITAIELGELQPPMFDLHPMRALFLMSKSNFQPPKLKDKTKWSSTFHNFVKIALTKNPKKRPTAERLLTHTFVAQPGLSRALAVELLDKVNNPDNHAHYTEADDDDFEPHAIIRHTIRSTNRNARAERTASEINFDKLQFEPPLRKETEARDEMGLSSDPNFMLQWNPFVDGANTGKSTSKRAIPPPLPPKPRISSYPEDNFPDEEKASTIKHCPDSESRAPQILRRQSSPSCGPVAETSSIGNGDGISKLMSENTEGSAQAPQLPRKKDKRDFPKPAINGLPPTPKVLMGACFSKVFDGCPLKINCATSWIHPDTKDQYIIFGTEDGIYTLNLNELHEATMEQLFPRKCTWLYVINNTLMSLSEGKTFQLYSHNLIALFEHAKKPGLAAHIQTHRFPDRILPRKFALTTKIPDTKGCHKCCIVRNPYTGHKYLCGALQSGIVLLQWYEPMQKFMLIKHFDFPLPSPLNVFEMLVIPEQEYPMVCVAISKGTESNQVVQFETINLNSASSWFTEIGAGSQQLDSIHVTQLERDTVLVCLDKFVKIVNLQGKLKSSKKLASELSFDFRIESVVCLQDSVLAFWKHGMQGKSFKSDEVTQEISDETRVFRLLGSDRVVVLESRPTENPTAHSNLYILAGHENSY
Mitogen-activated protein kinase 7 (Homo sapiens), sequence (Q13164 2-816 limits assumed): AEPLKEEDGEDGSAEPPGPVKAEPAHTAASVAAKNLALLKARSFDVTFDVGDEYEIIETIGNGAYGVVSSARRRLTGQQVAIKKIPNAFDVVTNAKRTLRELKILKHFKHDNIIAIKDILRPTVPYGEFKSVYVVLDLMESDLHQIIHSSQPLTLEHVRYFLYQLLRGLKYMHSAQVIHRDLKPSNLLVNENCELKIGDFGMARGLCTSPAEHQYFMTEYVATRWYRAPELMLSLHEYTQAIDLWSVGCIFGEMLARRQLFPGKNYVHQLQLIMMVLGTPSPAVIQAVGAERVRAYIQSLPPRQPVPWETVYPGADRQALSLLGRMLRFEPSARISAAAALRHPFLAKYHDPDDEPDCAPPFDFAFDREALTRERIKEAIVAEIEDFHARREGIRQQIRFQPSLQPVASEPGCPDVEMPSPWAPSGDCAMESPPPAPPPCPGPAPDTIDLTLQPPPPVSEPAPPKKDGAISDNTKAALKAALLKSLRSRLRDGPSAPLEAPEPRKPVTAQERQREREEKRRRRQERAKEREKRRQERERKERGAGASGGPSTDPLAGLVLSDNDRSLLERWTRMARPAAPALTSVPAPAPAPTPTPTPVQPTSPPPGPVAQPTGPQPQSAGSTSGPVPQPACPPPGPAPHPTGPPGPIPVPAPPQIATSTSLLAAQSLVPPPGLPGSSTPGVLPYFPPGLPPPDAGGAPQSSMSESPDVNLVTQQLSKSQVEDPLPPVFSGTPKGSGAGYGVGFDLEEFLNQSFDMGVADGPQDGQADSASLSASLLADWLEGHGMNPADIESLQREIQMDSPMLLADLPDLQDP
Serine/threonine-protein kinase WNK3 (Homo sapiens), sequence (Q9BYP7 whole entry): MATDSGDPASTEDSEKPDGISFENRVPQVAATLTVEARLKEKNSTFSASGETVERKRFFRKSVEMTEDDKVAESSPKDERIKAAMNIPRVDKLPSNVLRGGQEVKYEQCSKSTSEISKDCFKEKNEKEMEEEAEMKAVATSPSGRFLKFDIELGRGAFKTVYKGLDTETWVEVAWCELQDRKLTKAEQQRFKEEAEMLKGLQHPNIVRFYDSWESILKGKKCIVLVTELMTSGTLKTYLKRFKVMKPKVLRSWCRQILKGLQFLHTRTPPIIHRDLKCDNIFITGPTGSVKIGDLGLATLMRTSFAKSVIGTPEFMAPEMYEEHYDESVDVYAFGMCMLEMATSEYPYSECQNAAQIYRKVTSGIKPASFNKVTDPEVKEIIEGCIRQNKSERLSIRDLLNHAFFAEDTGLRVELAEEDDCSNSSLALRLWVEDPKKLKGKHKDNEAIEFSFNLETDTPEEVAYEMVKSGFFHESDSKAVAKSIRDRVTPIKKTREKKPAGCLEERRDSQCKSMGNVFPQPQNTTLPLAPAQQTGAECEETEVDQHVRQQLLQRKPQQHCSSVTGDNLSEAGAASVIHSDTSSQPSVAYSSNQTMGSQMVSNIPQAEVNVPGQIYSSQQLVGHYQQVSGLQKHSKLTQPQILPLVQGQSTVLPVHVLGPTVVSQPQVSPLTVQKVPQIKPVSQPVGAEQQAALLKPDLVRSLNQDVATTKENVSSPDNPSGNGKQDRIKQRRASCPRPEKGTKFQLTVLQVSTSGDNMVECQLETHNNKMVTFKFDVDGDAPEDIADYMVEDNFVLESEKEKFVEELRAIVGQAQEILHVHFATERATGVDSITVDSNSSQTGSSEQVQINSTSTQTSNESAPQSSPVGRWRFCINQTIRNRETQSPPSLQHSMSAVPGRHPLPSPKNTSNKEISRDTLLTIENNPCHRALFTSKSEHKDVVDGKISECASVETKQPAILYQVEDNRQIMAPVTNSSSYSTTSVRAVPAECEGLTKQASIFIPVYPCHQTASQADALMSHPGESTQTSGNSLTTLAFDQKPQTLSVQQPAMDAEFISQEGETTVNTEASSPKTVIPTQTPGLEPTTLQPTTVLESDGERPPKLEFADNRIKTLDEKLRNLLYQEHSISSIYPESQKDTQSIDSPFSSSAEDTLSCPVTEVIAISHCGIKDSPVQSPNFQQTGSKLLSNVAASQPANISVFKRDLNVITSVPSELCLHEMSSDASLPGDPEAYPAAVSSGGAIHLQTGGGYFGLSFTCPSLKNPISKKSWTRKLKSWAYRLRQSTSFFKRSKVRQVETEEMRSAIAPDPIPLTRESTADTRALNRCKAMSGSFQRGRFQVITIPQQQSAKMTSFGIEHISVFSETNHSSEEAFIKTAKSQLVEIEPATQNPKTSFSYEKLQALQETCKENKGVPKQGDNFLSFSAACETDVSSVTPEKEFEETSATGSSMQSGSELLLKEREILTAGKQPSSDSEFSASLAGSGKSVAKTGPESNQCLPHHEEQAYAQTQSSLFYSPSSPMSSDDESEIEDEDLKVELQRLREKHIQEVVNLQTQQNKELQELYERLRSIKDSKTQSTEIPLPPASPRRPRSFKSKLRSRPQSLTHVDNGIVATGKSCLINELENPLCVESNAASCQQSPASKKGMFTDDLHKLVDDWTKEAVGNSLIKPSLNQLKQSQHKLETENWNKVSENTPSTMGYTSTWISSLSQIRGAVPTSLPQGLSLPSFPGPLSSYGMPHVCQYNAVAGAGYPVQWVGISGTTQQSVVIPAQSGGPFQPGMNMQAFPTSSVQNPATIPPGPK
Focal adhesion kinase 1, sequence (Q05397 2-1052 limits assumed): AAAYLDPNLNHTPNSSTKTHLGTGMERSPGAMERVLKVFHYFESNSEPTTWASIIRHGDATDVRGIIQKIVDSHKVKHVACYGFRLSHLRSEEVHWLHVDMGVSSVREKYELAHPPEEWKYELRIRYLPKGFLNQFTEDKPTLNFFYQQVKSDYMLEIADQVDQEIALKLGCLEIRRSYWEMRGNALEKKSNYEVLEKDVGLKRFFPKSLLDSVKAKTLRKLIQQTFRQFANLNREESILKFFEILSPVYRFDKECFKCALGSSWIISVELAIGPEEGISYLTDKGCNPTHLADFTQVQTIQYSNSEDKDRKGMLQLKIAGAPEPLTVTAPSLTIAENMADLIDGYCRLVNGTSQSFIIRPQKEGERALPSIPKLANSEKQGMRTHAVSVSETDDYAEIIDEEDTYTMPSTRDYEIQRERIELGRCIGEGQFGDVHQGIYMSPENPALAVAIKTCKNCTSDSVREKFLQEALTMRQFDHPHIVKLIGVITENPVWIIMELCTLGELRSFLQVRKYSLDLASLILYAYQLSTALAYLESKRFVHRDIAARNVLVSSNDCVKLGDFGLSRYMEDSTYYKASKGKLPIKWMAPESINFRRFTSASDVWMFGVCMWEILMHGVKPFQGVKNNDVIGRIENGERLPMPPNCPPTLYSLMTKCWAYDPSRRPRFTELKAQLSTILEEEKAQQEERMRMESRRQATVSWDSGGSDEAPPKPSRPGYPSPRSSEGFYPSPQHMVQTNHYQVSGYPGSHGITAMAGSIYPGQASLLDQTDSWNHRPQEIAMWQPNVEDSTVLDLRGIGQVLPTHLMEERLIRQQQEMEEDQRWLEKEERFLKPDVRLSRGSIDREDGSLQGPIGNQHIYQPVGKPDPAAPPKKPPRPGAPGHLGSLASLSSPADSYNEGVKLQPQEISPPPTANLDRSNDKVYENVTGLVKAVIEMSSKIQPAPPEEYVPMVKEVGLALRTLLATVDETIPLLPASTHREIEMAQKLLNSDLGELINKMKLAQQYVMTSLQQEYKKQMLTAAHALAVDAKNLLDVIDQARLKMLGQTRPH

SMILES: C=CC(=O)Nc1ccc(C(=O)Nc2[nH]nc3c2CN(C(=O)N[C@H](CN(C)C)c2ccccc2)C3(C)C)cc1
- % of engagement [1]: 6%

SMILES: COCC(=O)NC/C=C/c1ccc2ncnc(Nc3ccc(Oc4ccc(C)nc4)c(C)c3)c2c1 [CP-724714]
- % of control [2]: 100%

SMILES: Cc1cc(F)c(C(=O)Nc2cccc(-c3nncn3C(C)C)n2)cc1-n1cnc(C2CC2)c1
- % of control [3]: 100%
- % of control [4]: 97%

SMILES: Nc1cnc(N2CCc3cc(S(=O)(=O)Nc4c(F)cc(Cl)cc4F)cc(N4CCCC4=O)c32)nc1 [TP-020n]
- % of control [5]: 100%

SMILES: O[C@H]1CC[C@H](Nc2ncc3nc(Nc4c(F)cc(F)cc4F)n([C@H]4CCOC4)c3n2)CC1
- % of control [6]: 75%
- % of control [7]: 100%

SMILES: CC[C@@H]1[C@H](F)C(=O)N[C@@H]1COc1nccc2cc(C(N)=O)c(OC)cc12 [ZIMLOVISERTIB]
- % of inhibition ([8]; at 0.01 µM): 5.1%
- % of inhibition ([8]; at 0.04 µM): -15.8%
- % of inhibition ([8]; at 0.2 µM): -12.3%
- % of inhibition ([8]; at 1 µM): -2.3%
- % of inhibition ([8]; at 5 µM): -20.8%
- % of inhibition [9]: -6.6%
- % of inhibition [10]: 46.2%

SMILES: CCC(=O)N1CCN(c2ccc(-n3c(=O)ccc4cnc5ccc(-c6cnc7ccccc7c6)cc5c43)cc2C(F)(F)F)CC1
- % of control (Focal adhesion kinase 1): 14%

SMILES: CN(C)C/C=C/C(=O)Nc1ccc(C(=O)N2CCCC(Nc3ncc(Cl)c(-c4c[nH]c5ccccc45)n3)C2)cc1 (stereo unspecified)
- % of control [11]: 100%
